Assay results: patent publication US6919374B1, “Viscosity modulating substance and use thereof” (Oklahoma Medical Research Foundation, priority 1999, dated 2005)
“Also recorded” adds a separate entry of the source. Where a SMILES comes first, the peptide text is derived from it.

Legend:
[1] = clinical trial; osteo- and mixed osteo- and rheumatoid arthritis; cited from earlier work
[2] = system: whole blood of sickle cell patients; test: Whole blood viscosity by RBC pipette method before and after administration of APM to sickle cell patients; format: in vivo; conditions: for blood viscosity after treatment: baseline vs 120 minutes post-treatment, APM 1.5, 3 or 6 mg/kg body weight
Experimental: Blood samples were obtained from ten patients having homozygous HgBss disease or heterozygous Hgbsc disease before and after a blinded administration of APM at 1.5 (low dose), 3 (medium dose), or 6 (high dose) milligrams per kilogram body weight.
Viscosity determinations using the RBC pipette method of Wright and Jenkins (1970, Blood 36:516) were made on each blinded whole blood sample before and 120 minutes after blinded administration of APM. Each measurement was made in triplicate. Control viscosity measurements using saline and water for each patient and normal whole blood were also made to validate the viscosity measurements.
(§1) To measure viscosity, 1.01 cc of the test fluid, i.e., either water, saline or blood, was drawn into an RBC pipette using a 50 cc syringe attached via rubber tubing to the top of the RBC pipette. Using a constant pressure of 20 mm by maintaining the pressure with visual feedback and hand pressure, the amount of time it took for the test fluid to drip out of the RBC pipette was measured with a stopwatch. Each measurement was made in triplicate. Changes in viscosity from baseline for patient blood samples were recorded and compared to normal controls.

[3] = with the exception of patients suffering from phenylketonuria; cited from earlier work
patient blood samples = test: Whole blood viscosity after in vitro addition of APM to patient blood samples; format: cell-based; conditions: HgBss patients; samples 480 minutes post-treatment; 1 or 2 milligrams/milliliter APM in vitro
Experimental: as §1
(§2) Samples with high viscosity readings at 480 minutes or 1,440 minutes post-treatment, chosen to represent patients with a validated response to APM who were returning to normal, were divided and treated with an additional 0, 1, or 2 milligrams/milliliter APM in vitro, in an effort to measure whether a second inducible sickling response was possible and if a second response to the in vitro APM addition could be observed. The viscosity of each sample at 480 minutes post-treatment was measured.

[4] = system: red blood cells containing HbS; conditions: WO 00/18418; cited from earlier work
[5] = system: sickle cells in HgBss blood; test: Sickling after in vitro addition of APM to patient blood; format: cell-based, patients
Experimental: as §2
Using metabisulfite to reduce HbS to the deoxy form (Daland, G. A. and Castle, W. B. 1948. J Lab Clin Med 33:1082-1088; Nelson, D. A. In Todd-Sanford-Davidsohn Clinical Diagnosis by Laboratory Methods, J. B. Henry, ed. (W.B. Saunders Co., Philadelphia, 1979, vol. 1, p. 1020), a baseline sickling test was run on each experimental sample. The sickling inducing agent was prepared fresh daily as follows: 10 milligrams metabisulfite in 1 milliliter isotonic saline. Multiple test slides were prepared for each experimental sample by adding approximately 300 microliters of the metabisulfite inducing agent to 50 microliters of well mixed blood and placing about 4 drops of the experimental sample onto the surface of a glass slide, placing a coverslip over the sample, and sealing the coverslip with a petroleum jelly bead to prevent oxygen from entering the sample. […]

[6] = system: sickle cells in HgBss blood; test: Metabisulfite slide test for sickling after APM given orally; format: in vivo, patients
Experimental: For comparative purposes, the number of sickle cells relative to the number of normal cells was obtained at 0, 30, 60, 120, 240, 480, and 1440 minutes after administration of APM according to the method given in Example 2.
Blood was drawn before and 120 minutes after treatment with 0, 1.5, 3, or 6 milligrams APM per kilogram body weight in a blinded fashion from the ten patients into heparin tubes, stored in a refrigerator at approximately 10° C. and routinely tested within 36 hours of collection.
Normal blood devoid of abnormal hemoglobin was used as a control. For each heparinized patient blood sample and the normal blood control, experimental samples were prepared containing 0.25 milliliters of normal saline and 0.25 milliliters of blood. […]
To account for natural or non-induced sickling of the experimental samples, a baseline sickling count was obtained for each heparinized patient blood sample and the normal blood control. […] Photomicrographs were taken with a phase contrast microscope at 400 magnification, and the results were obtained from the photomicrographs as the number of sickle cells per 100 cells counted. This number of sickle cells per 100 cells counted was considered the baseline sickling count and was subtracted from the cell counts obtained with the metabisulfite induced samples. […]

COC(=O)[C@H](Cc1ccccc1)NC(=O)[C@@H](N)CC(=O)O [APM, N-L-alpha-aspartyl-L-phenylalanine 1-methyl ester] (H-Asp-Phe-OMe)
pain and inflammation of arthritis [1]: alleviate the pain and inflammation | blood viscosity after treatment ([2]; HgBss patients): decreased; also recorded: reduces the viscosity | whole blood viscosity ([2]; in vivo): lowers whole blood viscosity | viscosity compared against Pirofsky's change in viscosity vs. hematocrit standard ([2]; patients with sickle cell disease (HgBss)): decreased | viscosity compared against Pirofsky's change in viscosity vs. hematocrit standard ([2]; patients with sickle cell trait (Hbgsc)): increased | blood viscosity after treatment ([2]; sbthal patients): decreased | safety status [3]: generally regarded as safe | viscosity of blood samples after in vitro APM addition, compared to the control (patient blood samples): decreased; also recorded: reduces | capacity of red blood cells containing HbS to sickle with hypoxemia [4]: reduction | number of sickle cells [5]: reduces the number of sickle cells | number of sickle cells [6]: reduces the number of sickle cells
